Measurements reported in US20040067991A1, “Tetrahydrobenzothiazole analogues as neuroprotective agents” (priority 2003, published 2004).
“Also recorded” adds a separate entry of the source. Counter-ions that a name gives are not always drawn. Like-named read-outs stand apart in the source and are kept apart here.

Assays:
[1] = test system: primary hippocampal neurons; assay: Neuronal survival of primary hippocampal neurons after excitotoxic insult (glutamate); assay type: cell-based, rat
Procedure: (§1) Dissociated hippocampal cell cultures were established from embryonic day 18 Sprague-Dawley rats (Harlan, Inc.) as described previously. See Culmsee et al. (2001) J. Neurochem. 77:220-28. Cells were grown in polyethyleneimine-coated plastic dishes or 22 m^2 glass coverslips, and incubated in Neurobasal medium containing B27 supplements, 2 mM L-glutamine, 25 mg/ml gentamycin, 1 mM Hepes (Gibco BRL) and 0.001% gentamicin sulfate. All experiments were performed using 9-10 day-old cultures. Camptothecin and etoposide (Signia) were prepared as 500× stocks in DMSO. Neuron survival was quantified by established methods. See Mattson et al. (1993) Neuron 10:243-54. Briefly, viable neurons in premarked fields (10× objective) were counted before experimental treatment and at specified time points thereafter. Neurons with intact neurites of uniform diameter and soma with a smooth round appearance were considered viable. In contrast neurons with fragmented neurites and vacuolated soma were considered non-viable.
Primary hippocampal neurons were prepared and cultured as described above. Cultures were pretreated with compounds 14 and 1 (0.04 μM) 1 h before exposure to glutamate (20 μM) in Locke's medium. The percentage of neuronal survival 24 h after the onset of insult is given as mean values±SD.

[2] = test system: PC12 cells; assay: Protection of PC12 cells against camptothecin-induced cell death (BCECF AM fluorescence); assay type: cell-based
Procedure: The 2-amino-4,5,6,7-tetrahydrobenzothiazole hydrogen iodide, 1-(4-methylphenyl)-2-(4,5,6,7-tetrahydro-2-imino-3(2H)-benzothiazolyl)-ethanone hydrobromide, and analogues were tested for their ability to protect PC12 cells against the toxic agent, camptothecin. PC12 cells were cultured in RPMI1640 media containing 10% horse serum and 5% fetal calf serum (37° C., pH 7.4) until confluent. Thereafter, 2.2×10^4 cells per mL were added to each trough of a 96 well plate (approximately 6,270 cells per well 285 μL) and were left to grow for 12 h. The media then was removed and was replaced by media with and without the compounds to be tested, including precursor, PFTα, and numerous analogues (concentration 100-400 nM, prepared in DMSO to a final dilution of 0.4%, 8 wells per concentration). Following 6 h of incubation, camptothecin (40 μM) was added to 4 of each 8 wells, and the cells were incubated for a further 24 h. Cells then were gently washed twice with phosphate buffered saline (PBS: 0.1 M, 37° C., pH 7.4) and were incubated in PBS containing the live-cell indicator dye, 2′,7′-bis(2-carboxyethey)-5-6-carboxyfluorescein AM ester (BCECF AM: 5 μM) (Molecular Probes, CA), for 45 min in minimal light. This fluorescent dye was taken up and retained by live cells. Finally, the cells were washed twice in PBS and their fluorescence then was quantified (excitation: 490 nm, emission: 535 nm, Perkin Elmer HTS 7000).
PC12 cell survival was also assessed. One hundred percent cell survival was determined from cells incubated in the absence of both any compound and camptothecin. […] Compound-induced toxicity was assessed by comparing cells treated with compound at various concentrations in the absence of camptothecin with cells incubated in the absence of both compound and camptothecin. […] Compound-induced cellular protection was assessed by comparing cells incubated with camptothecin with cells incubated with camptothecin in the presence of compound, in a concentration-dependent manner.

[3] = test system: caspase activation; assay: Caspase activation; assay type: cell-based
[4] = test system: rat hippocampal neurons; assay: Neuronal survival assay in cultured hippocampal neurons treated with camptothecin or etoposide; assay type: cell-based; details: for neuroprotection of hippocampal neurons against camptothecin (in words): 100 nM, added 1 h before camptothecin 5 μM; for neuroprotection of hippocampal neurons against etoposide (in words): added 1 h before etoposide 2.5 μM; for protection of primary hippocampal cells against death induced by camptothecin and etoposide (in words): camptothecin 5 μM, etoposide 2.5 μM; for protection of primary hippocampal cells against death induced by camptothecin and etoposide (in words) / neuronal survival: 24 h; for neuronal survival: pretreated with 100 nM of analogue, then camptothecin (5 μM)
Procedure: 2-amino-4,5,6,7-tetrahydrobenzothiazole hydrogen and 1-(4-methylphenyl)-2-(4,5,6,7-tetrahydro-2-imino-3(2H)-benzothiazolyl)-ethanone hydrobromide and their analogues were assessed for their ability to protect rat hippocampal cells in culture from camptothecin ([…]).
as §1, with “See Culmsee et al. (2001) J. Neurochem.” left out, “See Mattson et al. (1993) Neuron 10:243-54.” left out

[5] = test system: C57BL/6 mice given MPTP; assay: MPTP model: striatal dopamine, serotonin and metabolites by HPLC; assay type: in vivo, mouse; details: striatal tissue; for levels of dopamine, DOPAC, and HVA as compared to the MPTP-induced reduction (in words): 2 mg/kg; for 5-HIAA / 5-HT / DOPAC / Dopamine / HVA: compound 2 mg/kg + MPTP, mean±SE, 4-6 mice/group
Procedure: (§2) The ability of PFTα (5) and compounds 5× (Z-1-117) and 13 (Z-1-143) to protect dopaminergic neurons against MPTP toxicity was tested. MPTP (20 mg/kg) was administered intraperitoneally to 2 month-old male C57BL/6 mice by four injections at two hour intervals to induce dopaminergic cell death.
In a separate experiment, levels of striatal dopamine, dopamine metabolites, serotonin, and serotonin metabolites were measured using HPLC analysis. Specifically, mice were euthanatized, and striatal tissue samples were removed and levels of dopamine, DOPAC, HVA, 5-HT, 5-HIAA were quantified. […] There was no significant difference in levels of serotonin or serotonin metabolites.

[6] = test system: substantia nigra dopaminergic neurons; assay: MPTP model: TH-immunostained cells in the substantia nigra; assay type: in vivo, mouse; details: 2 mg/kg, seven days after treatment, 4 mice/group
Procedure: as §2
In yet another experiment, the number of TH-immunostained cells in the substantia nigra was assessed in four animals seven days after treatment. Mice were euthanized and perfused by 4% paraformadehyde transcardially. Brain sections were cut and immunostained with an antibody against TH. PFT-A and compound 5× attenuated MPTP-induced loss of substantia nigra dopaniinergic neurons.

[7] = test system: striatal tyrosine hydroxylase (TH); assay: MPTP model: striatal tyrosine hydroxylase levels by Western blot densitometry; assay type: in vivo, mouse; details: 2 mg/kg, 7 days later, hydrobromide
Procedure: as §2
Levels of tyrosine hydroxylase (TH), the enzyme that catalyzes the rate-limiting step in dopamine synthesis, also were assessed in the striatum using Western blot analysis.

[8] = test system: C57BL/6 mice given MPTP; assay: MPTP-induced Parkinson's disease model: rotarod behavioral tests; assay type: in vivo, mouse; details: 2 mg/kg i.p. 30 min before first and 30 min after last MPTP injection; day 7
Procedure: as §2
At seven days, behavioral tests were performed using the rotarod test equipment. The number of falls and running times were measured.

[9] = test system: C57BL/6 mice, middle cerebral artery occlusion; assay: Transient focal cerebral ischemia/reperfusion (middle cerebral artery occlusion) stroke model; assay type: in vivo, mouse
Procedure: Surgery was performed in anesthetized (xylazine 5 mg/kg, chloral hydrate 350 mg/kg) mice (3 month old C57B1/6) in accordance with a protocol approved by the NIH Animal Care and Use Committee. The focal ischemia/reperfusion model has been described previously. See Bruce et al. (1996) Nat. Med. 2:788-94. This method involves occluding the middle cerebral artery for 1 h with a nylon thread, and then removing it to allow reperfusion. During the procedure, mice were maintained at 37° C. and blood gases, flow and pressure were monitored. At 24 h after ischemia, mice were anesthetized, decapitated, and their brains were cut into 2 mm coronal sections, which then were stained with triphenyltetrazolium for 30 min at 37° C. Images of the stained brains were captured by digital camera for quantitative analysis of infarct area and volume.
The infarct volume for vehicle was 40 mm^3. When mice were treated with PFTα, infarct volume was 20 mm^3, a highly significant 50% decrease.

[10] = 6 h preincubation with compound, camptothecin 40 μM for 24 h; read-out: PD50; concentration of compounds required to induce 50% protection (PC50) of PC12 cells from camptothecin-induced cell-death
[11] = compounds 100-400 nM, camptothecin 40 μM 24 h

| Structure (SMILES) | EC50 [2, 10] [nM] | neuroprotection of hippocampal neurons against camptothecin (in words) [4] | neuroprotection of hippocampal neurons against etoposide (in words) [4] | neuronal survival [4] [%] | protection of PC12 cells against camptothecin-induced death (in words) [2, 11] | levels of dopamine, DOPAC, and HVA as compared to the MPTP-induced reduction (in words) [5] | 5-HIAA [5] [pg/mg tissue weight] | 5-HT [5] [pg/mg tissue weight] | DOPAC [5] [pg/mg tissue weight] | Dopamine [5] [pg/mg tissue weight] | HVA [5] [pg/mg tissue weight] | MPTP-induced loss of substantia nigra dopaminergic neurons, TH-positive cells (in words) [6] | number of falls on rotarod (in words) [8] | running time on rotarod (in words) [8] | further results |
| --- | --- | --- | --- | --- | --- | --- | --- | --- | --- | --- | --- | --- | --- | --- | --- |
| Br.CCC(=O)Cn1c2c(sc1=N)CCCC2 [Compound 1, 1-(4.5,6,7-tertahydro-2-imino-3(2H)-benzothiazolyl)-2-butanone Hydrobromide] | 571 | significant neuroprotection | more active than compound PFTα | 65 |  |  |  |  |  |  |  |  |  |  | protection of hippocampal neurons against glutamate-induced death (in words) ([1]; 0.04 μM 1 h before glutamate (20 μM), survival at 24 h): protect; neuron survival increased ([1]; neurons pretreated with compound, death induced by glutamate): 39%; caspase activation (in words) [3]: suppress caspase activation; protection of primary hippocampal cells against death induced by camptothecin and etoposide (in words) ([4]; Hydrobromide): had neuroprotection; also recorded: highly potency |
| Cc1ccc(C(=O)Cn2c3c(sc2=N)CCCC3)cc1 [Compound 5, 1-(4-methylphenyl)-2-(4,5,6,7-tetrahydro-2-imino-3(2H)-benzothiazolyl)-ethanone hydrobromide, reference compound] |  |  | had activity | 62 | protected | statistically significant increase | 245 ± 33 | 419 ± 20 | 170 | 3314 | 328 ± 35 | attenuated | statistically significant decease | statistically significant increase | neuronal survival of PC12 cells increased ([2]; compared to PC12 cells treated with camptothecin in the absence of PFTα): up to 70%; EC50 ([2]; read-out: PD50; concentration of compounds required to induce 50% protection (PC50) of PC12 cells from camptothecin-induced cell-death; 6 h preincubation with compound, camptothecin 40 μM for 24 h): 252 nM; MPTP-induced loss of striatal tyrosine hydroxylase (in words) ([7]; listed as PFT-a): reverse the MPTP reduction in TH levels; MPTP-induced loss of striatal tyrosine hydroxylase (in words) ([7]; listed as PFT-alpha): attenuate; improved cell survival compared to vehicle controls after pretreatment ([4]; 200 nM pretreatment 1 hour, camptothecin 5 μM or etoposide 2.5 μM): improved cell survival; protection of primary hippocampal cells against death induced by camptothecin and etoposide (in words) ([4]; listed as PFTα, hydrobromide): protects; also recorded: potent activity; toxicity when administered alone to hippocampal cells ([4]; concentrations up to 400 nM): neither PFTα (5) nor its precursor were toxic; brain entry after systemic administration (in words) ([9]; 2 mg/kg i.p.): entered and acted in the brain; infarct area at four different brain levels (in words) ([9]; 2 mg/kg i.p.): reduction in the infarct area; infarct volume ([9]; 2 mg/kg i.p. before 1 h MCA occlusion, 24 h after ischemia): 20 mm^3; decrease in infarct volume ([9]; 2 mg/kg i.p., versus vehicle (40 mm^3)): 50% |
| Br.Cc1ccc(C(=O)Cn2c3c(sc2=N)CC(C)CC3)cc1 (stereo not drawn) [Compound 5×, 1-(4-methylphenyl)-2-(4,5,6,7-tertahydro-2-imino-6-methyl-3(2H)-benzothiazolyl)-ethanone hydrobromide] | 306 | could not protect neurons effectively | activity comparable to PFTα | 29 | highly potent | statistically significant increase | 246 ± 15 | 424 ± 12 | 102 | 1833 | 302 ± 20 | attenuated | statistically significant decease | statistically significant increase | MPTP-induced loss of striatal tyrosine hydroxylase (in words) [7]: attenuate; also recorded: reverse the MPTP reduction in TH levels; protection of primary hippocampal cells against death induced by camptothecin and etoposide (in words) [4]: highly potency |
| Br.N=c1sc2c(n1CC(=O)c1ccccc1)CCCC2 [Compound 13, 1-phenyl-2-(4,5,6,7-tertahydro-2-imino-3(2H)-benzothiazolyl)-ethanone hydrobromide] | 169 |  |  |  |  |  | 223 ± 45 | 429 ± 42 | 10 ± 10 | 440 | 91 ± 58 |  |  |  | protection of PC12 cells against camptothecin-induced death (in words) ([2]; compounds 100-400 nM, camptothecin 40 μM 24 h; hydrobromide): highly potent; also recorded: highly active in PC12 cells only |
